Measured values as given in patent US20250235455A1, “AQUEOUS TICAGRELOR SOLUTIONS, METHOD OF MANUFACTURING AND USES” (HYLORIS DEVELOPMENTS SA, priority 2022, published 2025).
Like-named read-outs stand apart in the source and are kept apart here.

How the values were obtained:
[1] = Impact of packaging on stability, HPβCD 32.5% w/w, 5 mM pH 7.5 phosphate buffer, 40° C./75% RH; assay type: physicochemical; conditions: for Assay: in %
Experimental: To study the potential impact of the packaging material on the stability of the ticagrelor-cyclodextrin inclusion complex a composition with 32.5% w/w HPβCD was prepared with procedures and precaution's similar to previous trials, samples were stored in transparent clear glass vials and amber colored glass vials at a temperature of 40° C./75% RH.

[2] = Clear aqueous ticagrelor-cyclodextrin solutions considering 65 mg dose; assay type: physicochemical; conditions: using 20-40% w/w HPβCD
[3] = Bulk hold study, ticagrelor 8 mg/ml in 30% w/w HPβCD, phosphate buffer pH 7.5; assay type: physicochemical
Experimental: To investigate the impact of temperature and hold time, a new composition was prepared as per below Table 19.
In first step a phosphate buffer at pH 7.5 was prepared and the buffered solution was heated to 40° C.-45° C. HPβCD was added to the buffered solution under continuous mixing. […] It usually took 30 mins to 4 hours depending on batch size.
Then this solution was filtered through a 0.22-micron filter and packed in suitable clear or amber colored glass vials

[4] = Impact of ticagrelor particle size on dissolution; assay type: physicochemical
Text: Two different particle size diameters for the ticagrelor active ingredient were screened, 5.5 and 15 micrometers. The pH and osmolality were not affected.

[5] = for Appearance, undiluted: 5 mg/ml; for Appearance in 5% dextrose / Appearance in NaCl 0.9%: diluted to 0.1 mg/ml
Flocculation test = assay type: physicochemical
[6] = Amber colour USP Type I Glass vials, 1 M
[7] = Amber colour USP Type I Glass vials, 2 M
[8] = Amber colour USP Type I Glass vials, 3 M
[9] = Amber colour USP Type I Glass vials, T0
[10] = Clear USP Type I Glass vials, 1 M
[11] = Clear USP Type I Glass vials, 2 M
[12] = Clear USP Type I Glass vials, 3 M
[13] = Clear USP Type I Glass vials, T0

Structure (SMILES): CCCSc1nc(N[C@@H]2C[C@H]2c2ccc(F)c(F)c2)c2nnn([C@@H]3C[C@H](OCCO)[C@@H](O)[C@H]3O)c2n1 [Ticagrelor, (1S,2S,3R,5S)-3-{7-[(1R,2S)-2-(3,4-difluorophenyl)cyclopropylamino]5-(propylthio)-3H-(1,2,3)triazolo (4,5-D)pyrimidin-3-yl}-5-(2 hydroxyethoxy)cyclopentane-1,2-diol]
- Acetal impurity [1, 6]: 0.05%
- Amine impurity [1, 6]: 0.04%
- Description [1, 6]: clear
- Regiomer [1, 6]: 0.01%
- Sum Impurities >0.05 [1, 6]: 0.05%
- Total impurity [1, 6]: 0.22%
- Triol impurity [1, 6]: 0.02%
- pH [1, 6]: 7.70
- Assay [1, 6]: 100.24
- Acetal impurity [1, 7]: 0.04%
- Amine impurity [1, 7]: 0.04%
- Description [1, 7]: clear
- Regiomer [1, 7]: 0.02%
- Sum Impurities >0.05 [1, 7]: 0.00%
- Total impurity [1, 7]: 0.28%
- Triol impurity [1, 7]: 0.04%
- pH [1, 7]: 7.69
- Assay [1, 7]: 99.89
- Acetal impurity [1, 8]: 0.05%
- Amine impurity [1, 8]: 0.06%
- Description [1, 8]: clear
- Regiomer [1, 8]: 0.04%
- Sum Impurities >0.05 [1, 8]: 0.16%
- Total impurity [1, 8]: 0.33%
- Triol impurity [1, 8]: 0.05%
- pH [1, 8]: 7.66
- Assay [1, 8]: 98.93
- Acetal impurity [1, 9]: 0.05%
- Amine impurity [1, 9]: 0.04%
- Description [1, 9]: clear
- Regiomer [1, 9]: 0.00%
- Sum Impurities >0.05 [1, 9]: 0.18%
- Total impurity [1, 9]: 0.40%
- Triol impurity [1, 9]: 0.04%
- pH [1, 9]: 7.66
- Assay [1, 9]: 98.34
- Acetal impurity [1, 10]: 0.04%
- Amine impurity [1, 10]: 0.04%
- Description [1, 10]: clear
- Regiomer [1, 10]: 0.01%
- Sum Impurities >0.05 [1, 10]: 0.00%
- Total impurity [1, 10]: 0.22%
- Triol impurity [1, 10]: 0.03%
- pH [1, 10]: 7.65
- Assay [1, 10]: 101.71
- Acetal impurity [1, 11]: 0.04%
- Amine impurity [1, 11]: 0.04%
- Description [1, 11]: clear
- Regiomer [1, 11]: 0.02%
- Sum Impurities >0.05 [1, 11]: 0.05%
- Total impurity [1, 11]: 0.28%
- Triol impurity [1, 11]: 0.05%
- pH [1, 11]: 7.63
- Assay [1, 11]: 99.69
- Acetal impurity [1, 12]: 0.05%
- Amine impurity [1, 12]: 0.06%
- Description [1, 12]: clear
- Regiomer [1, 12]: 0.04%
- Sum Impurities >0.05 [1, 12]: 0.16%
- Total impurity [1, 12]: 0.33%
- Triol impurity [1, 12]: 0.05%
- pH [1, 12]: 7.58
- Assay [1, 12]: 98.25
- Acetal impurity [1, 13]: 0.05%
- Amine impurity [1, 13]: 0.04%
- Description [1, 13]: clear
- Regiomer [1, 13]: 0.00%
- Sum Impurities >0.05 [1, 13]: 0.22%
- Total impurity [1, 13]: 0.40%
- Triol impurity [1, 13]: 0.05%
- pH [1, 13]: 7.65
- Assay [1, 13]: 98.34
- Ticagrelor solution concentration achieved [2]: 5 to 13 mg/mL
- Acetal impurity ([3]; Bulk hold 45° C., T = 1 h): 0.04%
- Amine impurity ([3]; Bulk hold 45° C., T = 1 h): 0.05%
- Assay Ticagrelor ([3]; Bulk hold 45° C., T = 1 h): 107.87%
- Sum Impurities >0.05 ([3]; Bulk hold 45° C., T = 1 h): 0.12%
- Total Impurities ([3]; Bulk hold 45° C., T = 1 h): 0.20%
- Triol impurity ([3]; Bulk hold 45° C., T = 1 h): 0.04%
- Unnamed impurity, relative retention time 1.33 ([3]; Bulk hold 45° C., T = 1 h): 0.07%
- Acetal impurity ([3]; Bulk hold 45° C., T = 110 h): 0.04%
- Amine impurity ([3]; Bulk hold 45° C., T = 110 h): 0.07%
- Assay Ticagrelor ([3]; Bulk hold 45° C., T = 110 h): 109.10%
- Sum Impurities >0.05 ([3]; Bulk hold 45° C., T = 110 h): 0.11%
- Total Impurities ([3]; Bulk hold 45° C., T = 110 h): 0.28%
- Triol impurity ([3]; Bulk hold 45° C., T = 110 h): 0.05%
- Unnamed impurity, relative retention time 1.33 ([3]; Bulk hold 45° C., T = 110 h): 0.03%
- Acetal impurity ([3]; Bulk hold at 30° C., T0): 0.04%
- Amine impurity ([3]; Bulk hold at 30° C., T0): 0.06%
- Assay Ticagrelor ([3]; Bulk hold at 30° C., T0): 105.60%
- Regiomer impurity ([3]; Bulk hold at 30° C., T0): 0.00%
- Sum Impurities >0.05 ([3]; Bulk hold at 30° C., T0): 0.10%
- Total Impurities ([3]; Bulk hold at 30° C., T0): 0.21%
- Triol impurity ([3]; Bulk hold at 30° C., T0): 0.05%
- Acetal impurity ([3]; Bulk hold at 30° C., T4 W): 0.04%
- Amine impurity ([3]; Bulk hold at 30° C., T4 W): 0.06%
- Assay Ticagrelor ([3]; Bulk hold at 30° C., T4 W): 106.14%
- Regiomer impurity ([3]; Bulk hold at 30° C., T4 W): 0.00%
- Sum Impurities >0.05 ([3]; Bulk hold at 30° C., T4 W): 0.06%
- Total Impurities ([3]; Bulk hold at 30° C., T4 W): 0.21%
- Triol impurity ([3]; Bulk hold at 30° C., T4 W): 0.04%
- Acetal impurity ([3]; sealed vials, T = 1 M, 25° C.): 0.03%
- Amine impurity ([3]; sealed vials, T = 1 M, 25° C.): 0.06%
- Assay Ticagrelor ([3]; sealed vials, T = 1 M, 25° C.): 107.22%
- Regiomer impurity ([3]; sealed vials, T = 1 M, 25° C.): 0.03%
- Sum Impurities >0.05 ([3]; sealed vials, T = 1 M, 25° C.): 0.06%
- Total Impurities ([3]; sealed vials, T = 1 M, 25° C.): 0.23%
- Triol impurity ([3]; sealed vials, T = 1 M, 25° C.): 0.01%
- Unnamed impurity, relative retention time 1.03 ([3]; sealed vials, T = 1 M, 25° C.): 0.02%
- Unnamed impurity, relative retention time 1.33 ([3]; sealed vials, T = 1 M, 25° C.): 0.03%
- Acetal impurity ([3]; sealed vials, T = 1 M, 40° C.): 0.00%
- Amine impurity ([3]; sealed vials, T = 1 M, 40° C.): 0.06%
- Assay Ticagrelor ([3]; sealed vials, T = 1 M, 40° C.): 105.16%
- Regiomer impurity ([3]; sealed vials, T = 1 M, 40° C.): 0.08%
- Sum Impurities >0.05 ([3]; sealed vials, T = 1 M, 40° C.): 0.21%
- Total Impurities ([3]; sealed vials, T = 1 M, 40° C.): 0.28%
- Triol impurity ([3]; sealed vials, T = 1 M, 40° C.): 0.00%
- Unnamed impurity, relative retention time 1.03 ([3]; sealed vials, T = 1 M, 40° C.): 0.02%
- Unnamed impurity, relative retention time 1.33 ([3]; sealed vials, T = 1 M, 40° C.): 0.08%
- Dissolution time ([4]; D90 5.5 μm, micronized): 33 min
- Osmolality ([4]; D90 5.5 μm, micronized): 751 mOsm/kg
- pH ([4]; D90 5.5 μm, micronized): 7.68
- Dissolution time ([4]; D90 15 μm, unmicronized): 125 min
- Osmolality ([4]; D90 15 μm, unmicronized): 753 mOsm/kg
- pH ([4]; D90 15 μm, unmicronized): 7.70
- Appearance, undiluted ([5]; HPβCD 22.5% w/w): Turbid; clear after heating to 40 °C
- Appearance, undiluted ([5]; HPβCD 25.0% w/w): Turbid; clear after heating to 40 °C
- Appearance, undiluted ([5]; HPβCD 27.5% w/w): Turbid; clear after heating to 40 °C
- Appearance, undiluted ([5]; HPβCD 30.0% w/w): Clear solution
- Appearance, undiluted ([5]; HPβCD 32.5% w/w): Clear solution
- Ticagrelor concentration possible to dissolve ([5]; HPβCD 20-40% w/w, without the use of heat): 5 to 15 mg/mL
- Appearance in 5% dextrose ([5]; HPβCD 22.5% w/w): Clear solution
- Appearance in NaCl 0.9% ([5]; HPβCD 22.5% w/w): Turbid
- Appearance in 5% dextrose ([5]; HPβCD 25.0% w/w): Clear solution
- Appearance in NaCl 0.9% ([5]; HPβCD 25.0% w/w): Turbid
- Appearance in 5% dextrose ([5]; HPβCD 27.5% w/w): Clear solution
- Appearance in NaCl 0.9% ([5]; HPβCD 27.5% w/w): Turbid
- Appearance in 5% dextrose ([5]; HPβCD 30.0% w/w): Clear solution
- Appearance in NaCl 0.9% ([5]; HPβCD 30.0% w/w): Turbid
- Appearance in 5% dextrose ([5]; HPβCD 32.5% w/w): Clear solution
- Appearance in NaCl 0.9% ([5]; HPβCD 32.5% w/w): Clear solution
- Stability of undiluted concentrate in the refrigerator ([5]; HPβCD concentration as low as 22.5% w/w): remained stable
- HPβCD required for a clear, storage stable ticagrelor solution ([5]; concentration relevant for injection or intravenous administration): At least 15 % w/w
- Flocculation test (Flocculation test; HPβCD 25% w/w, ticagrelor 5 mg/ml): did not pass
- Flocculation test (Flocculation test; HPβCD 30% w/w, ticagrelor 5 mg/ml): passed
- Flocculation test (Flocculation test; HPβCD 35% w/w, ticagrelor 5 mg/ml): passed
- Flocculation test (Flocculation test; HPβCD 35% w/w, ticagrelor 10 mg/ml): did not pass
- Flocculation test (Flocculation test; HPβCD 40% w/w, ticagrelor 5 mg/ml): passed
- Flocculation test (Flocculation test; HPβCD 40% w/w, ticagrelor 10 mg/ml): passed
- Flocculation test (Flocculation test; SBECD 40% w/w, ticagrelor 5 mg/ml): passed
